According to patent publication US4629627A, “Antiviral substance and the manufacturing method thereof” (priority 1978, dated 1986):

How the values were obtained:
liver cancer in rats [1] = conditions: rat's liver; cited from earlier work
liver cancer in rats [2] = test: Experiment 3: depression of liver cancer induced by 3'-Me-DAB in rats; type: in vivo, Wister male rats
Description: The present inventor asked Prof. Nobuhiko Kanno, Biological Laboratory, Dept. of Pharmacology, Toyama Medical and Pharmacologival University, to test the activity of the present antiviral substance to depress the liver cancer in rats on pathogens of viruses.
1. Test animals: Wister male rats of 4 weeks of age were fed for 5 days as usual and tested.
2. Carcinogenic substance: 3'-methyl-4-dimethyl amino azobenzene (3'-Me-DAB) [drawing 1]
(1) Control group: standard food
(2) L group: standard food+L
(3) L+DAB group 0.06% 3'-Me-DAB containing food+L
(4) DAB group 0.06% 3'-Me-DAB containing food
Note: L: a frozen dry powder of the extract of the nutrient medium and tissue-medium of Lentinus edodes DAB: 3'-Me-DAB
4. Quantity and the method of giving the freeze-dried powder of the extract of the nutrient medium and tissue-medium of Lentinus edodes […]
The freeze-dried powder of the nutrient medium and tissue-medium of Lentinus edodes was dissolved in physiological salt water, and given intraperitoneally; the same dose of physiological salt water was similarly given to the control group.

Structure (SMILES): Cc1cccc(N=Nc2ccc(N(C)C)cc2)c1 [3'-Me-DAB, 3'-methyl-4-dimethyl amino azobenzene]
- carcinogenic property (liver cancer in rats [1]): specific and strong carcinogenic property
- liver finding at autopsy (liver cancer in rats [2]; dissection, after 14 and 18 weeks): fine yellowish white particles which seemed to be cancerous tissue were seen all over the liver
- microscopic findings of the liver tissue (liver cancer in rats [2]; hematoxin-eosin): severe disarrangement of cells and the glandular structure specific to liver cancer (adeno carcinoma)
- depilation (liver cancer in rats [2]; microscopic observation, within about 5 and 15 weeks): depilation appeared on the abdomen in some a rats
